# Reference: US20170107203A1, “HETEROCYCLIC INHIBITORS OF THE SODIUM CHANNEL” (EPIRUS BIOPHARMACEUTICALS, INC., priority 2014, published 2017)
# Target: T1, human Nav1.7 (Homo sapiens, UniProt Q15858)
# T1 construct: expressed in transfected cells
# Assay: Assessment of Nav1.7 activity on PatchXpress (voltage dependence / slow inactivation parameters)
# Assay type: cell-based
# Conditions: compound at 10 μM, relative to 0.2% DMSO vehicle control; for hNav1.7: Reduction in current at 20 mV (normalized data) Delta Ratio: before/after 30 sec conditioning pulse at 20 mV; for hNav1.7: Shift in voltage dependence of inactivation (mV) Delta Vhalf: PatchXpress
# Procedure: The generation of a HEK 293F cell line stably expressing human Nav1.7/Navp1 was achieved by co-transfecting human SCN9A and human SCN1B cDNAs, subcloned into plasmid vectors, utilizing standard transfection techniques. Clones were selected using appropriate selection agents (0.3 mg/mL Zeocin and 0.8 mg/mL Geneticin) and maintained in Dulbecco's Modified Eagle medium, 10% fetal bovine serum, 1% non-essential amino acids to ˜80% confluence at 37° C. in a humidified incubator with 95% atmosphere and 5% CO2.
# On the day of each experiment, cells that were grown to 80% confluence in a T75 flask were harvested for use on PatchXpress (Molecular Devices, CA, USA). Following a recovery period at 37° C. in a humidified incubator with 95% atmosphere and 5% CO2 in Dulbecco's Modified Eagle Medium, the media was replaced with an external recording solution containing (in mM): 90 TEACI, 50 NaCl, 1.8 CaCl2, 1 MgCl2, 10 HEPES, 10 glucose, adjusted to pH 7.4 with TEAOH and 300 mOsm with sucrose. The internal recording solution contained (in mM): 129 CsF, 2 MgCl2, 11 EGTA, 10 HEPES, 6 NaCl, 3 Na2ATP adjusted to pH 7.2 with CsOH and 280 mOsm with sucrose. The automated liquid handling facility of PatchXpress dispensed cells and added compound. Modulation of Nav1.7 channels by compounds was assessed by promoting the channels into the inactivated state using a conditioning voltage pulse of variable amplitude, followed by a brief hyperpolarizing pulse with a subsequent depolarized voltage step to measure the current amplitude in the presence and absence of compound. Compounds were assayed at 10 μM. Based upon this Patch express protocol, four electrophysiological parameters were measured relative to a 0.2% DMSO vehicle control (Table 2).
# T1 sequence (Q15858 whole entry): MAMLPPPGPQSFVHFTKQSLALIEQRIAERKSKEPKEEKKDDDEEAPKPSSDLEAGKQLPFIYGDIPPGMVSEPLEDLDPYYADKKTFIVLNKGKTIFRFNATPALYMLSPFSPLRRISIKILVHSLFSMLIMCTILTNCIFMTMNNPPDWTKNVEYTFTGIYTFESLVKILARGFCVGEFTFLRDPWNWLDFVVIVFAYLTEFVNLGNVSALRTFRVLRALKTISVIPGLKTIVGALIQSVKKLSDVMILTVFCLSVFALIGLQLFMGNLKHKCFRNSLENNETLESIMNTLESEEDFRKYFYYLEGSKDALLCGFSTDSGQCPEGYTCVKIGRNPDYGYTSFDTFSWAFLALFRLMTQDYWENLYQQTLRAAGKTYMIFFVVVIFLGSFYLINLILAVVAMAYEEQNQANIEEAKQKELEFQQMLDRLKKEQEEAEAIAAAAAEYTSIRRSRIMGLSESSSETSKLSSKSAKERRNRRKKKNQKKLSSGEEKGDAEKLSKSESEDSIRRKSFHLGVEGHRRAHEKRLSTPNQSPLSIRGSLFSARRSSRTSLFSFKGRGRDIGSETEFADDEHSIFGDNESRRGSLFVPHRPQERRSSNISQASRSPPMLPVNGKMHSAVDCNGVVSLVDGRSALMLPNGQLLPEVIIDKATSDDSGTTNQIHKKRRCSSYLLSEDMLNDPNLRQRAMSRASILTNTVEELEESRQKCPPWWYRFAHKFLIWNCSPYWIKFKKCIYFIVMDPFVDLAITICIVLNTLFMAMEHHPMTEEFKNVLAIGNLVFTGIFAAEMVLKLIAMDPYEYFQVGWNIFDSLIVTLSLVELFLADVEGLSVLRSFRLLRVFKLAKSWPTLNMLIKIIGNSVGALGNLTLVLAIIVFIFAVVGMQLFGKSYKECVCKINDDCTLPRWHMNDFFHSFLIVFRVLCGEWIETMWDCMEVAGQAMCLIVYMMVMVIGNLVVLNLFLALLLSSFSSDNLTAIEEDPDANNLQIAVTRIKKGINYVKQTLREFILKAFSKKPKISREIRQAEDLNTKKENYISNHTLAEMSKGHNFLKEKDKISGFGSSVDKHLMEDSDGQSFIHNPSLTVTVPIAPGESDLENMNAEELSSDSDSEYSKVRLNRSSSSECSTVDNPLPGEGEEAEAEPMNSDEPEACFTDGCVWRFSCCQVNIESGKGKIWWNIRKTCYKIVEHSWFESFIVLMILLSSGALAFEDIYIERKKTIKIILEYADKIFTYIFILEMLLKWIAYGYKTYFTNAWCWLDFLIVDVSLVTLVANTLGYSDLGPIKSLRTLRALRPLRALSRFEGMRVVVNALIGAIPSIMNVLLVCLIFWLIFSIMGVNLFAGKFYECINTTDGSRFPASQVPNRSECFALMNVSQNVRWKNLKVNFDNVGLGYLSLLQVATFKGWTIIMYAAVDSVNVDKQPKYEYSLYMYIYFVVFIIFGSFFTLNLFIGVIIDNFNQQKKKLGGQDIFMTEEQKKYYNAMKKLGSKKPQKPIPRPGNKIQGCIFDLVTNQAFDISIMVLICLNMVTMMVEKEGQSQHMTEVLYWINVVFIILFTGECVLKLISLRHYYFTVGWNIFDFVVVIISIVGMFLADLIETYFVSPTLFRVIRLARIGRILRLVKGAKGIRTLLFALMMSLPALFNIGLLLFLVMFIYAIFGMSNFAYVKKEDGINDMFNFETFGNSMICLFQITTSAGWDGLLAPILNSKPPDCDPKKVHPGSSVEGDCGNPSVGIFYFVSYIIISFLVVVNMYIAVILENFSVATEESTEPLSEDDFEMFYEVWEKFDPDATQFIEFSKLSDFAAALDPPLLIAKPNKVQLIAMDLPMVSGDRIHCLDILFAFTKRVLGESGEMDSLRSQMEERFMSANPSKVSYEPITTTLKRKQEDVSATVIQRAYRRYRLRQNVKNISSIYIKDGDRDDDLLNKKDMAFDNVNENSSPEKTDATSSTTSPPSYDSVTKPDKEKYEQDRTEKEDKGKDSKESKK
# T1 sequence (Q07699 19-218 partner): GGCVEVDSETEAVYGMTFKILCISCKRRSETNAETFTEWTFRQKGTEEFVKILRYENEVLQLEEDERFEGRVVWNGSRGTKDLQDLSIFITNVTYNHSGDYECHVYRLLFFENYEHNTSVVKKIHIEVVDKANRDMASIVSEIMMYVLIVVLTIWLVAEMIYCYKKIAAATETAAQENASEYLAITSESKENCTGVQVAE
Structure (SMILES),hNav1.7: Reduction in current at 20 mV (normalized data) Delta Ratio,hNav1.7: Voltage dependence of activation (mV) VDEP [mV],hNav1.7: Voltage dependence of fast inactivation (mV) VDEP [mV],hNav1.7: Shift in voltage dependence of inactivation (mV) Delta Vhalf [mV]
"O=C(NCC12CC3CC(CC(C3)C1)C2)[C@H]1CCCN1 [Compound 44, (R)-N-(adamantan-1-ylmethyl)pyrrolidine-2-carboxamide]",−0.11,−13.20,−6.00,−5.40
"Cc1cccc(C)c1OCC(C)NC(=O)C(C)(C)N1CCNCC1=O (centres unmarked) [Compound 37, N-(1-(2,6-dimethylphenoxy)propan-2-yl)-2-methyl-2-(2-oxopiperazin-1-yl)propanamide]",−0.09,−9.00,−6.30,−5.00
"O=C(NCCOc1cc(C(F)(F)F)cc(C(F)(F)F)c1)C1CCCN1 (centres unmarked) [Compound 14, N-(2-(3,5-bis(trifluoromethyl)phenoxy)ethyl) pyrrolidine-2-carboxamide]",−0.17,−4.00,−1.10,−25.30
"CC[C@@H](C)[C@@H](N)C(=O)NCCOc1cc(F)cc(C(F)(F)F)c1 [Compound 19, (2R,3R)-2-amino-N-(2-(3-fluoro-5-(trifluoromethyl)phenoxy)ethyl)-3-methylpentanamide]",−0.08,−8.00,−3.50,−10.00
"CC(C)CC(N)C(=O)N[C@H](COc1cc(C(F)(F)F)cc(C(F)(F)F)c1)c1ccccc1 (stereo partly drawn) [Compound 4, 2-amino-N-((S)-2-(3,5-bis(trifluoromethyl)phenoxy)-1-phenylethyl)-4-methylpentanamide]",−0.27,−5.80,−11.50,−31.10
"O=C(NC12CC3CC(CC(C3)C1)C2)[C@@H]1CCCN1 [Compound 45, (S)-N-(adamantan-1-yl)pyrrolidine-2-carboxamide]",−0.07,−5.10,−7.00,−6.20
"COC[C@@H](NC(C)=O)C(=O)NCc1cc(C(F)(F)F)cc(C(F)(F)F)c1 [Compound 79, (R)-2-acetamido-N-(3,5-bis(trifluoromethyl)benzyl)-3-methoxypropanamide]",−0.04,−15.2,−7.9,−5.8
"O=C(NCCc1c[nH]c2ccc(F)cc12)[C@@H]1CCCN1 [Compound 48, (S)-N-(2-(5-fluoro-1H-indol-3-yl)ethyl)pyrrolidine-2-carboxamide]",−0.01,−4.80,−3.00,−1.80
"NC[C@@H]1Nc2c(cc(C(F)(F)F)cc2C(F)(F)F)NC1=O [Compound 40, (S)-3-(aminomethyl)-5,7-bis(trifluoromethyl)-3,4-dihydroquinoxalin-2(1H)-one]",−0.02,−6.60,−2.60,−3.90
"CC(C)CC(N)C(=O)N[C@H](C)COc1cc(C(F)(F)F)cc(C(F)(F)F)c1 (stereo partly drawn) [Compound 5, 2-amino-N-((R)-1-(3,5-bis(trifluoromethyl)phenoxy)propan-2-yl)-4-methylpentanamide]",−0.26,−4.60,−6.30,−25.20

# Next, values leading:
hNav1.7: Reduction in current at 20 mV (normalized data) Delta Ratio,hNav1.7: Voltage dependence of activation (mV) VDEP [mV],hNav1.7: Voltage dependence of fast inactivation (mV) VDEP [mV],hNav1.7: Shift in voltage dependence of inactivation (mV) Delta Vhalf [mV],Structure (SMILES)
−0.02,−10.3,−5,−2.8,"C[C@@H](NC(=O)CN1CCNCC1=O)c1ccc(OCC(F)(F)F)cn1 [Compound 81, (R)-2-(2-oxopiperazin-1-yl)-N-(1-(5-(2,2,2-trifluoroethoxy)pyridin-2-yl)ethyl)acetamide]"
−0.06,−2.2,−5,−0.3,"CN(Cc1nc2c(C(F)(F)F)cc(C(F)(F)F)cc2[nH]1)C(=O)CNC(C)(C)C [Compound 77, N-((4,6-bis(trifluoromethyl)-1H-benzo[d]imidazol-2-yl)methyl)-2-(tert-butylamino)-N-methylacetamide]"
0.01,−5,−4.1,−3.1,"O=C1CNCCN1Cc1cc(C(F)(F)F)cc(C(F)(F)F)c1 [Compound 91, 1-(3,5-bis(trifluoromethyl)benzyl)piperazin-2-one]"
−0.28,−7.2,−8.2,−14.9,"NC1(c2nc3cc(C(F)(F)F)cc(C(F)(F)F)c3[nH]2)Cc2ccccc2C1 [Compound 52, 2-(4,6-bis(trifluoromethyl)-1H-benzo[d]imidazol-2-yl)-2,3-dihydro-1H-inden-2-amine]"
−0.07,−12.5,−5.4,−3.7,"CC(C)(C)OC(=O)N[C@H](Cc1cccc(C(F)(F)F)c1)C(=O)NCc1nc2c(C(F)(F)F)cc(C(F)(F)F)cc2[nH]1 [Compound 73, tert-butyl (R)-(1-(((4,6-bis(trifluoromethyl)-1H-benzo[d]imidazol-2-yl)methyl)amino)-1-oxo-3-(3-(trifluoromethyl)phenyl)propan-2-yl)carbamate]"
−0.21,−4,−4.9,−8.6,"N[C@@H](c1ccc(F)cc1)c1nc2cc(C(F)(F)F)cc(C(F)(F)F)c2[nH]1 [Compound 58, (S)-(4,6-bis(trifluoromethyl)-1H-benzo[d]imidazol-2-yl)(4-fluorophenyl)methanamine]"
−0.35,−9.5,−11.5,−20.8,"N[C@@H](Cc1ccccc1)c1nc2cc(C(F)(F)F)cc(C(F)(F)F)c2[nH]1 [Compound 51, (S)-1-(4,6-bis(trifluoromethyl)-1H-benzo[d]imidazol-2-yl)-2-phenylethan-1-amine]"
0.01,−3.1,−0.5,−1.5,"C[C@@H](NC(=O)[C@H]1CCCN1)c1ccc(OCC(F)(F)F)cn1 [Compound 83, (R)-N-((R)-1-(5-(2,2,2-trifluoroethoxy)pyridin-2-yl)ethyl)pyrrolidine-2-carboxamide]"
−0.1,−11.6,−4.9,−11.4,"O=C1CNCCN1CCCc1nc2cc(F)cc(F)c2[nH]1 [Compound 68, 1-(3-(4,6-difluoro-1H-benzo[d]imidazol-2-yl)propyl)piperazin-2-one]"
0.01,−2.9,0.1,2.3,"NC1CCN(C(=O)Cc2nc3cc(C(F)(F)F)cc(C(F)(F)F)c3[nH]2)CC1 [Compound 90, 1-(4-aminopiperidin-1-yl)-2-(4,6-bis(trifluoromethyl)-1H-benzo[d]imidazol-2-yl)ethan-1-one]"
